Assay in all cases: NCI-60 cell line screen, 48 h
Test [1] deals with IGROV1 ovarian.
Test [2] relates to SNB-75 CNS.
Test [3] deals with HS 578T breast.
Test [4] concerns DU-145 prostate.
For test [5], the system named is TK-10 renal.
The subject of test [6] is SK-MEL-2 melanoma.
The test system of test [7] is A549 NSCLC.
For test [8], the system named is MDA-MB-435.

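Compound exposure: 48 hours, 5 concentrations, 96-well plates. Here, GI50 denotes the concentration required for 50% inhibition of growth. TGI is the concentration that stops growth completely.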 Where a SMILES comes first, the peptide text is derived from it. Bridges are numbered along the chain shown (N, C = ends). Roman numbers before positions name the chains, in order. [ ]: non-standard residue; d: D form. The star is where a group is joined. Quinoxaline2carbonyl = O=C(c1cnc2ccccc2n1)*; NMeV = CN[CH](C(=O)O)C(C)C; NMeC = CN[CH](CS)C(=O)O A value given as a limit tells only on which side of the number the result lay.

Twelve compounds from PubChem BioAssay (NCI) can be followed below.

With `Cc1c(C2=C(c3cn(C)c4ccccc34)C(=O)NC2=O)c2ccccc2n1C`, the GI50 in test [1] is > 10.2 µM; in test [2], 0.732 µM; in test [3] it was 0.943 µM; in test [4] it was 9.62 µM; in test [5] it was 6 µM; in test [6], 1.93 µM. Also, the GI50 in test [7] is 1.74 µM. Moreover, the TGI in test [1] is > 25 µM; in test [2] it was 7.38 µM; in test [3] it was > 25 µM; in test [4], > 25 µM; in test [5], > 25 µM; in test [6] it was 24.3 µM. Also, the TGI in test [7] is > 25 µM.
In the case of `CN1CCN(Cc2ccc(NC(=O)c3[nH]ncc3Nc3ncnc4sc5c(c34)CCCC5)cc2)CC1`, the GI50 in test [1] is 0.258 µM; in test [2], 0.104 µM; in test [3], 0.151 µM; in test [8] it was 0.291 µM; in test [5] it was 1.14 µM; in test [6], 0.665 µM. Further, the TGI in test [1] was 1.3 µM; in test [2] it was 1.44 µM; in test [3] it was 1.74 µM; in test [8], 1.71 µM; in test [5] it was 2.4 µM; in test [6] it was 3.22 µM.
As for `CC1NC(=O)C(NC(=O)c2cnc3ccccc3n2)COC(=O)C(C(C)C)N(C)C(=O)C2CSSCC(C(=O)N(C)C(C(C)C)C(=O)OCC(NC(=O)c3cnc4ccccc4n3)C(=O)NC(C)C(=O)N2C)N(C)C1=O` (stereo not drawn) (I: Quinoxaline2carbonyl-SA[NMeC][NMeV] / II: Quinoxaline2carbonyl-SA[NMeC][NMeV]; ester I:1-II:C, I:C-II:1; disulfide I:3-II:3; configuration not given here), the TGI in test [2] was < 0.01 µM; in test [3] it was < 0.01 µM; in test [8], < 0.01 µM; in test [5] it was > 5.39 µM; in test [6], < 0.01 µM; in test [7] it was 2.78 µM.
Take `c1ccc2c3c([nH]c2c1)C1CCCN1CC3` (stereo not drawn): the TGI in test [1], in test [2], in test [3], in test [4], in test [8] and in test [5] was > 10 µM each time. The TGI in test [6] was > 10 µM.
For the compound `CCC1(O)C(=O)OCc2c1cc1n(c2=O)Cc2cc3cc(N)ccc3nc2-1` (stereo not drawn), the TGI was > 55.2 µM in test [1]; 0.0375 µM in test [2]; > 95.2 µM in test [3]; < 0.01 µM in test [4]; > 28.2 µM in test [5]; 0.826 µM in test [6]. The same compound gave a TGI in test [7] of 2.41 µM.
As to `C[CH2][Pb]([CH2]C)([CH2]C)[O]C(=O)c1ccc2ccccc2n1`, the GI50 in test [1], in test [3], in test [4], in test [8], in test [6] and in test [7] was > 10 µM each time. For the same compound, the TGI in test [1], in test [3], in test [4], in test [8], in test [6] and in test [7] was > 10 µM in each case.
For the compound `CC1(C)CCC[C@]2(C)[C@@H](C=O)C(C=O)=CC[C@@H]12`, the TGI is 44.4 µM in test [1]; > 100 µM in test [3]; 50.3 µM in test [4]; > 100 µM in test [8]; 74 µM in test [5]; 39.7 µM in test [6]. Further, the TGI in test [7] is > 100 µM.
With `Cc1nc2ccccc2c(/C=C/c2ccc(Br)cc2)c1C(=O)/C=C/c1ccccc1`, the GI50 was 1.29 µM in test [1]; 1.73 µM in test [2]; 1.62 µM in test [4]; 1.94 µM in test [8]; 2.15 µM in test [5]; 1.75 µM in test [6]. For the same compound, the GI50 in test [7] is 1.91 µM. Moreover, the TGI came to 4.98 µM in test [1]; 5.44 µM in test [2]; 3.15 µM in test [4]; 4.69 µM in test [8]; 3.87 µM in test [5]; 3.46 µM in test [6]. The compound further returned a TGI in test [7] of 4.57 µM.
`COC12c3ccccc3-c3ccccc3C1[C@H]1C(=O)OC(=O)[C@H]12` (stereo partly drawn): the TGI in test [1], in test [2], in test [3], in test [4], in test [8] and in test [5] was > 10 µM throughout. Besides, the TGI in test [6] is > 10 µM.
For `CN1CCN(CC(O)COc2c(Br)c(Br)c(Br)c3c2OC(C)(C)C3)CC1` (stereo not drawn), the GI50 in test [1] was 5.36 µM; in test [2], 7.79 µM; in test [3], 10.4 µM; in test [4], 11.8 µM; in test [5] it was 15 µM; in test [6], 10.2 µM. In addition, the GI50 in test [7] is 10.6 µM. Besides, the TGI in test [1] stood at 25.1 µM; in test [2], 27 µM; in test [3], 42.7 µM; in test [4], 24.5 µM; in test [5], 37.7 µM; in test [6] it was 25.2 µM. For the same compound, in test [7], the TGI worked out at 30.4 µM.
For `BrCc1ccc(CBr)cc1`, the GI50 in test [1] is 7 µM; in test [2], 18.8 µM; in test [3] it was 21.6 µM; in test [4], 3.38 µM; in test [8], 5.56 µM; in test [5] it was 1.58 µM. Also, the GI50 in test [7] is 21.7 µM. Also, the TGI is > 87.4 µM in test [1]; > 100 µM in test [2]; 69 µM in test [3]; 12.9 µM in test [4]; 15.6 µM in test [8]; 5.99 µM in test [5]. Further, the TGI in test [7] came to 76.8 µM.
For the compound `COc1ccc(C2[C@@H](Cl)C(=O)N2c2cc(OC)c(OC)c(OC)c2)cc1Cl` (stereo partly drawn), the GI50 in test [1] is 0.343 µM; in test [2] it was 0.0734 µM; in test [3], 0.0705 µM; in test [4], 0.37 µM; in test [5], 0.94 µM; in test [6], 0.177 µM. In addition, in test [7], the GI50 was 0.364 µM. In addition, the TGI in test [1] was 41.5 µM; in test [2], 71.2 µM; in test [3], 70.3 µM; in test [4] it was > 100 µM; in test [5] it was 71.7 µM; in test [6], 22.5 µM. Also, in test [7], the TGI was > 100 µM.
